The source of these data is patent US6982348B2, “Aminoethanol derivatives” (Takeda Pharmaceutical Company Limited, priority 2001, dated 2006).

The melting point is the temperature of the solid-liquid transition.

As for `CC(C)(C)c1ccc(C[C@@H](NC(=O)c2cccc3c2C=CCCC3)[C@@H](O)c2cccc(Cl)c2)cc1` (racemic) [Example 272, N-[(1RS,2SR)-1-(4-tert-butylbenzyl)-2-(3-chlorophenyl)-2-hydroxyethyl]-6,7-dihydro-5H-benzo[a][7]annulene-1-carboxamide], the melting point was in the range of 142 to 143 °C.

Compound `CC(C)(C)c1ccc(C[C@@H](NC(=O)c2ccc(F)c3ccccc23)[C@@H](O)c2cccc(Cl)c2)cc1` (racemic) [Example 273, N-[(1RS,2SR)-1-(4-tert-butylbenzyl)-2-(3-chlorophenyl)-2-hydroxyethyl]-4-fluoro-1-naphthamide] came in with a melting point of 144 to 145 °C.

For the compound `CC(C)(C)c1ccc(C[C@@H](NC(=O)c2cccc3c(F)cccc23)[C@@H](O)c2cccc(Cl)c2)cc1` (racemic) [Example 275, N-[(1RS,2SR)-1-(4-tert-butylbenzyl)-2-(3-chlorophenyl)-2-hydroxyethyl]-5-fluoro-1-naphthamide], the melting point fell in the range of 102 to 103 °C.

`CC(C)(C)Oc1ccc(C[C@@H](NC(=O)c2cccc3c2C=CCCC3)[C@@H](O)c2cccc(Cl)c2)cc1` (racemic) [Example 276, N-[(1RS,2SR)-1-(4-tert-butoxybenzyl)-2-(3-chlorophenyl)-2hydroxyethyl]-6,7-dihydro-5H-benzo[a][7]annulene-1-carboxamide] had a melting point of 180 to 181 °C.

`CC(C)(C)Oc1ccc(C[C@@H](NC(=O)c2ccc(F)c3ccccc23)[C@@H](O)c2cccc(Cl)c2)cc1` (racemic) [Example 277, N-[(1RS,2SR)-1-(4-tert-butoxybenzyl)-2-(3-chlorophenyl)-2-hydroxyethyl]-4-fluoro-1-naphthamide] came in with a melting point of 161 to 162 °C.

In turn, `CC(C)(C)Oc1ccc(C[C@@H](NC(=O)c2cccc3c(Cl)cccc23)[C@@H](O)c2cccc(Cl)c2)cc1` (racemic) [Example 278, N-[(1RS,2SR)-1-(4-tert-butoxybenzyl)-2-(3-chlorophenyl)-2-hydroxyethyl]-5-chloro-1-naphthamide] showed a melting point of 132 to 133 °C. Next, `CC(C)(C)OC(=O)N[C@H](Cc1cccc(S(=O)(=O)C(F)(F)F)c1)[C@@H](O)c1ccc(F)cc1` (racemic) [Example 279, tert-butyl (1RS,2SR)-2-(4-fluorophenyl)-2-hydroxy-1-{3-[(trifluoromethyl)sulfonyl]benzyl}ethylcarbamate]: 152 to 153 °C. Next, `O=C(N[C@H](Cc1cccc(S(=O)(=O)C(F)(F)F)c1)[C@@H](O)c1ccc(F)cc1)c1cccc2c1C=CCCC2` (racemic) [Example 280, N-((1RS,2SR)-2-(4-fluorophenyl)-2-hydroxy-1-{3-[(trifluoromethyl)sulfonyl]benzyl}ethyl)-6,7-dihydro-5H-benzo[a][7]annulene-1-carboxamide]: 156 to 157 °C; `O=C(N[C@H](Cc1cccc(S(=O)(=O)C(F)(F)F)c1)[C@@H](O)c1ccc(F)cc1)c1ccc(F)c2ccccc12` (racemic) [Example 281, 4-fluoro-N-((1RS,2SR)-2-(4-fluorophenyl)-2-hydroxy-1-{3-[(trifluoromethyl)sulfonyl]benzyl}ethyl)-1-naphthamide]: 157 to 158 °C; `CC(C)Oc1cccc(C[C@@H](NC(=O)c2cccc3c2C=CCCC3)[C@@H](O)c2ccc(F)cc2)c1` (racemic) [Example 282, N-[(1RS,2SR)-2-(4-fluorophenyl)-2-hydroxy-1-(3-isopropoxybenzyl)ethyl]-6,7-dihydro-5H-benzo[a]cycloheptene-1-carboxamide]: 161 to 162 °C. Next, `CC(C)Oc1cccc(C[C@@H](NC(=O)c2ccc(F)c3ccccc23)[C@@H](O)c2ccc(F)cc2)c1` (racemic) [Example 283, 4-fluoro-N-[(1RS,2SR)-2-(4-fluorophenyl)-2-hydroxy-1-(3-isopropoxybenzyl)ethyl]-1-naphthamide]: 190 to 191 °C. On to `O=C(N[C@H](Cc1cccc(O)c1)[C@@H](O)c1ccc(F)cc1)c1ccc(F)c2ccccc12` (racemic) [Example 286, 4-fluoro-N-[(1RS,2SR)-2-(4-fluorophenyl)-2-hydroxy-1-(3-hydroxybenzyl)ethyl]-1-naphthamide], for which the melting point was in the range of 179 to 180 °C. `O=C(N[C@H](Cc1cccc(OC(F)(F)C(F)F)c1)[C@@H](O)c1ccc(F)cc1)OCc1ccccc1` (racemic) [Example 287, benzyl N-[(1RS,2SR)-2-(4-fluorophenyl)-2-hydroxy-1-[3-(1,1,2,2-tetrafluoroethoxy)benzyl]ethyl]carbamate]: the melting point fell in the range of 136 to 137 °C.

With `CC1(C)CC=Cc2c(cccc2C(=O)N[C@H](Cc2cccc(OC(F)(F)C(F)F)c2)[C@@H](O)c2ccc(F)cc2)C1` (racemic) [Example 288, N-[(1RS,2SR)-2-(4-fluorophenyl)-2-hydroxy-1-[3-(1,1,2,2-tetrafluoroethoxy)benzyl]ethyl]-6,6-dimethyl-6,7-dihydro-5H-benzo[a]cycloheptene-1-carboxamide], the melting point is 115 to 116 °C. Next, `O=C(N[C@H](Cc1cccc(OC(F)(F)C(F)F)c1)[C@@H](O)c1ccc(Cl)s1)c1cccc2c1C=CCCC2` (racemic) [Example 289, N-[(1RS,2RS)-2-(5-chloro-2-thienyl)-2-hydroxy-1-[3-(1,1,2,2-tetrafluoroethoxy)benzyl]ethyl]-6,7-dihydro-5H-benzo[a]cycloheptene-1-carboxamide]: 177 to 178 °C; `O=C(N[C@H](Cc1cccc(OC(F)(F)C(F)F)c1)[C@@H](O)c1ccc(Br)cc1)c1cccc2c1C=CCCC2` (racemic) [Example 290, N-[(1RS,2SR)-2-(4-bromophenyl)-2-hydroxy-1-[3-(1,1,2,2-tetrafluoroethoxy)benzyl]ethyl]-6,7-dihydro-5H-benzo[a]cycloheptene-1-carboxamide]: 184 to 185 °C. Then `O=C(N[C@H](Cc1cccc(OC(F)(F)C(F)F)c1)[C@@H](O)c1ccc(-c2ccccc2)cc1)c1cccc2c1C=CCCC2` (racemic) [Example 291, N-[(1RS,2SR)-2-(1,1′-biphenyl-4-yl)-2-hydroxy-1-[3-(1,1,2,2-tetrafluoroethoxy)benzyl]ethyl]-6,7-dihydro-5H-benzo[a]cycloheptene-1-carboxamide], with 122 to 123 °C.

In turn, `O=C(N[C@H](Cc1cccc(OC(F)(F)C(F)F)c1)[C@@H](O)c1ccc(-c2ccsc2)cc1)c1cccc2c1C=CCCC2` (racemic) [Example 292, N-[(1RS,2SR)-2-hydroxy-1-[3-(1,1,2,2-tetrafluoroethoxy)benzyl]-2-[4-(3-thienyl)phenyl]ethyl]-6,7-dihydro-5H-benzo[a]cycloheptene-1-carboxamide] showed a melting point of 178 to 179 °C. On to `O=C(N[C@H](Cc1cccc(OC(F)(F)C(F)F)c1)[C@@H](O)c1ccc(-c2ccccc2Cl)cc1)c1cccc2c1C=CCCC2` (racemic) [Example 293, N-[(1RS,2SR)-2-(2′-chloro[1,1′-biphenyl]-4-yl)-2-hydroxy-1-[3-(1,1,2,2-tetrafluoroethoxy)benzyl]ethyl]-6,7-dihydro-5H-benzo[a]cycloheptene-1-carboxamide], for which the melting point was in the range of 172 to 173 °C. Next, `O=C(N[C@H](Cc1cccc(OC(F)(F)C(F)F)c1)[C@@H](O)c1ccc(-c2ccc(Cl)cc2)cc1)c1cccc2c1C=CCCC2` (racemic) [Example 294, N-[(1RS,2SR)-2-(4′-chloro[1,1′-biphenyl]-4-yl)-2-hydroxy-1-[3-(1,1,2,2-tetrafluoroethoxy)benzyl]ethyl]-6,7-dihydro-5H-benzo[a]cycloheptene-1-carboxamide]: 167 to 168 °C; `O=C(N[C@H](Cc1cccc(OC(F)(F)C(F)F)c1)[C@@H](O)c1ccc(-c2cccc(Cl)c2)cc1)c1cccc2c1C=CCCC2` (racemic) [Example 295, N-[(1RS,2SR)-2-(3′-chloro[1,1′-biphenyl]-4-yl)-2-hydroxy-1-[3-(1,1,2,2-tetrafluoroethoxy)benzyl]ethyl]-6,7-dihydro-5H-benzo[a]cycloheptene-1-carboxamide]: 131 to 132 °C.

For `COc1ccccc1-c1ccc([C@H](O)[C@@H](Cc2cccc(OC(F)(F)C(F)F)c2)NC(=O)c2cccc3c2C=CCCC3)cc1` (racemic) [Example 296, N-[(1RS,2SR)-2-hydroxy-2-(2′-methoxy[1,1′-biphenyl]-4-yl)-1-[3-(1,1,2,2-tetrafluoroethoxy)benzyl]ethyl]-6,7-dihydro-5H-benzo[a]cycloheptene-1-carboxamide], the melting point lay in the range of 148 to 150 °C.

The compound `COc1ccc(-c2ccc([C@H](O)[C@@H](Cc3cccc(OC(F)(F)C(F)F)c3)NC(=O)c3cccc4c3C=CCCC4)cc2)cc1` (racemic) [Example 297, N-[(1RS,2SR)-2-hydroxy-2-(4′-methoxy[1,1′-biphenyl]-4-yl)-1-[3-(1,1,2,2-tetrafluoroethoxy)benzyl]ethyl]-6,7-dihydro-5H-benzo[a]cycloheptene-1-carboxamide] yielded a melting point of 162 to 163 °C. Take `COc1cccc(-c2ccc([C@H](O)[C@@H](Cc3cccc(OC(F)(F)C(F)F)c3)NC(=O)c3cccc4c3C=CCCC4)cc2)c1` (racemic) [Example 298, N-[(1RS,2SR)-2-hydroxy-2-(3′-methoxy[1,1′-biphenyl]-4-yl)-1-[3-(1,1,2,2-tetrafluoroethoxy)benzyl]ethyl]-6,7-dihydro-5H-benzo[a]cycloheptene-1-carboxamide]: the melting point lay in the range of 79 to 81 °C.

`O=Cc1ccc(-c2ccc([C@H](O)[C@@H](Cc3cccc(OC(F)(F)C(F)F)c3)NC(=O)c3cccc4c3C=CCCC4)cc2)cc1` (racemic) [Example 299, N-[(1RS,2SR)-2-(4′-formyl[1,1′-biphenyl]-4-yl)-2-hydroxy-1-[3-(1,1,2,2-tetrafluoroethoxy)benzyl]ethyl]-6,7-dihydro-5H-benzo[a]cycloheptene-1-carboxamide] had a melting point of 174 to 176 °C. Then `O=Cc1cccc(-c2ccc([C@H](O)[C@@H](Cc3cccc(OC(F)(F)C(F)F)c3)NC(=O)c3cccc4c3C=CCCC4)cc2)c1` (racemic) [Example 300, N-[(1RS,2SR)-2-(3′-formyl[1,1′-biphenyl]-4-yl)-2-hydroxy-1-[3-(1,1,2,2-tetrafluoroethoxy)benzyl]ethyl]-6,7-dihydro-5H-benzo[a]cycloheptene-1-carboxamide], with 103 to 105 °C.
